Reference: the supplement of paper PMC10307832

Assays:
BAY61-3606 + Vorinostat = compound: COC1=C(C=C(C=C1)C2=CC3=NC=CN3C(=N2)NC4=C(C=CC=N4)C(=O)N)OC [BAY61-3606] + O=C(CCCCCCC(=O)Nc1ccccc1)NO [Vorinostat] (partner 1 µM); test: relative viability (nuclei count vs DMSO), 5 days (fraction); higher = more cells survive
In short: (§1)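 Lung cancer cell lines were pin-tool dosed in 1536-well plates on the day after seeding, with either a lone drug or a fixed anchor-drug dose plus five library-drug doses (not always all listed) in √10 steps. Nuclei were counted on 4× images after 5 days. Relative viability is the ratio of treated-well to vehicle-well nuclei counts, with each value a median of duplicate plates.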

BAY61-3606 + AZD7762 = compound: COC1=C(C=C(C=C1)C2=CC3=NC=CN3C(=N2)NC4=C(C=CC=N4)C(=O)N)OC [BAY61-3606] + NC(=O)Nc1cc(-c2cccc(F)c2)sc1C(=O)N[C@H]1CCCNC1 [AZD7762] (partner 0.2 µM); test: as above
In short: as §1

Cell Line	relative viability (BAY61-3606 + Vorinostat; first compound 0.02 µM)	relative viability (BAY61-3606 + Vorinostat; first compound 0.06325 µM)	relative viability (BAY61-3606 + Vorinostat; first compound 0.2 µM)	relative viability (BAY61-3606 + Vorinostat; first compound 0.6325 µM)	relative viability (BAY61-3606 + Vorinostat; first compound 2 µM)	relative viability (BAY61-3606 + AZD7762; first compound 0.02 µM)	relative viability (BAY61-3606 + AZD7762; first compound 0.06325 µM)	relative viability (BAY61-3606 + AZD7762; first compound 0.2 µM)	relative viability (BAY61-3606 + AZD7762; first compound 0.6325 µM)	relative viability (BAY61-3606 + AZD7762; first compound 2 µM)
NCI-H2347	0.721	0.65	0.598	0.575	0.597	0.801	0.701	0.73	0.67	0.709
NCI-H1650	0.611	0.551	0.5	0.665	0.61					
NCI-H1944	0.65	0.538	0.515	0.559	0.487	0.477	0.533	0.635	0.592	0.485
EKVX	0.84	0.685	0.658	0.783	0.775	0.742	0.673	0.644	0.753	0.665
NCI-H1355	0.722	0.617	0.574	0.645	0.604	0.833	0.531	0.679	0.749	0.529
IA-LM	0.947	0.851	0.894	1.25	0.96					
NCI-H2228	0.713	0.594	0.663	0.634	0.571					
NCI-H596	0.726	0.568	0.514	0.771	0.686	1.04	0.929	1.13	1.7	0.846
SK-MES-1	1.14	1.13	1.05	1.11	0.86					
EPLC-272H	0.402	0.401	0.579	0.339	0.37	0.223	0.193	0.313	0.186	0.173
HCC-366	0.383	0.385	0.175	0.345	0.244	0.286	0.222	0.282	0.265	0.283
PC-14	0.808	0.799	0.845	0.87	0.667	0.418	0.268	0.35	0.32	0.342
SW 1573	0.817	0.643	0.578	0.815	0.344					
COR-L 105	0.938	0.947	0.734	0.791	0.746					
NCI-H322M	0.985	0.872	0.974	0.866	0.74	0.528	0.525	0.579	0.522	0.571
NCI-H1395	0.736	0.705	0.595	0.705	0.706	0.393	0.411	0.424	0.42	0.393
PC-3 [JPC-3]	0.849	0.668	1.04	0.834	0.789	0.675	0.794	0.809	0.801	0.752
NCI-H1975	0.849	0.734	0.712	0.722	0.585	0.706	0.603	0.621	0.654	0.348
NCI-H2342	0.87	0.818	0.835	0.867	0.762	0.459	0.496	0.416	0.726	0.586
CAL-12T	0.827	0.859	0.725	0.81	0.576	0.693	0.577	0.677	0.634	0.71

Cell Line	relative viability (BAY61-3606 + Vorinostat; first compound 0.02 µM)	relative viability (BAY61-3606 + Vorinostat; first compound 0.06325 µM)	relative viability (BAY61-3606 + Vorinostat; first compound 0.2 µM)	relative viability (BAY61-3606 + Vorinostat; first compound 0.6325 µM)	relative viability (BAY61-3606 + Vorinostat; first compound 2 µM)	relative viability (BAY61-3606 + AZD7762; first compound 0.02 µM)	relative viability (BAY61-3606 + AZD7762; first compound 0.06325 µM)	relative viability (BAY61-3606 + AZD7762; first compound 0.2 µM)	relative viability (BAY61-3606 + AZD7762; first compound 0.6325 µM)	relative viability (BAY61-3606 + AZD7762; first compound 2 µM)
SK-LU-1	0.695	0.83	0.755	0.679	0.504					
NCI-H650	0.466	0.414	0.428	0.355	0.35	1.18	0.887	0.889	0.998	0.999
NCI-H2170	0.835	0.752	0.842	0.83	0.739	0.895	0.913	0.885	0.85	0.585
NCI-H2023	0.856	0.671	0.638	0.82	0.468					
SW 900	0.457			0.564	0.439	0.591			0.632	0.758
201T	1.02	0.962	1.05	1.09	1.06	0.592	0.759	0.752	0.661	0.688
NCI-H2405	1.17	1.02	1.15	0.968	0.824	0.832	0.658	0.748	0.658	0.496
LU99A	0.548	0.399	0.48	0.434	0.401	0.41	0.306	0.358	0.399	0.334
LC-2-ad	0.821	0.743	0.588	0.707	0.721	0.876	0.887	0.778	0.857	0.849
NCI-H2087	0.673	1.03	0.727	0.359	0.647	1.31	1.43	1.35	1.23	0.959
COR-L23	0.564	0.5	0.511	0.491	0.323					
BEN	0.545	0.577	0.573	0.546	0.588	0.78	0.637	0.672	0.694	0.808
ChaGo-K-1	0.72	0.767	0.715	0.714	0.793	0.943	0.904	0.9	0.847	0.841
LK-2	0.264	0.297	0.301	0.327	0.306	0.369	0.309	0.472	0.534	0.361
NCI-H520	0.768	0.861	0.624	0.71	0.638					
NCI-H661	0.78	0.825	0.773	0.864	0.779					
ABC-1	1.41	1.08	1.3	1.3	1.28	0.644	0.793	0.716	0.701	0.873
NCI-H1703						0.119			0.108	0.137
NCI-H2009	0.703	0.833	0.714	0.734	0.697					
